# In patent EP0162576A1, “Ethanolamine compounds” (GLAXO GROUP LIMITED, priority 1984, dated 1985):
# Counter-ions that a name gives are not always drawn.
# Legend:
# β2-adrenoreceptors = target: T1, β2-adrenoreceptors (Cavia porcellus, UniProt Q8K4Z4); assay: Guinea-pig tracheal strip preparation (relaxation of PGF2a-contracted trachea); type: cell-based; conditions: equipotent concentration = EC50 test compound / EC50 isoprenaline; tracheal rings contracted with prostaglandin F2a (2.9x10^-6M), 37°
# T1 construct: from tissue; host or cells: isolated guinea-pig trachea (tracheal rings)
# Protocol: The compounds according to the invention have a selective stimulant action at P2-adrenoreceptors, which furthermore is of a particularly advantageous profile. […] Compounds according to the invention have shown a particularly long duration of action in this test.
# The stimulant action at β2-adrenoreceptors of compounds of the invention was determined using the following:
# GUINEA-PIG TRACHEAL STRIP PREPARATION
# Tracheal rings were mounted in a superfusion apparatus, and continuously superfused with oxygenated physiological (Kreb's) solution containing indomethacin (2.4x10 ^6M) and atropine (4x10^-7M) at 37° at a rate of 2ml/min. Changes in tension of the preparation were measured using an isometric strain gauge. Preparations were contracted for the duration of the test by the inclusion of prostaglandin F2a (2.9x10^-6M) in the superfusion fluid. Two bolus dose-effect curves to the standard, isoprenaline, (1x10^-12-1x10^-9 moles) were obtained at the start of each test in a cumulative fashion, allowing the relaxation obtained with each to reach its own maximum before the next increment was made. On completion of this dose-effect curve, sufficient time was allowed for the tissue to recover (15-30min). After this time, sequential concentration-effect curves were constructed for first isoprenaline and then the test compound. These were constructed as follows: a low concentration (isoprenaline 3x10-^10M; test compound 1x10^-10M) was infused until any response obtained had reached its maximum, then the infusion was stopped and the tissue allowed to recover for a maximum of 30min. After this period the procedure was repeated using progressively increasing concentrations of agonist, and in this way, whole concentration-effect curves obtained. Potency was determined by comparison of the concentration-effect curve thus constructed with that previously obtained for isoprenaline and expressed as equipotent concentration (isoprenaline = 1) i.e. EC50 test compound was calculated.
# Duration of action was also measured for each response, and is the time taken from stopping the infusion to 50% recovery. Graphs were drawn for duration times against response magnitude, and from these, duration times for 50% maximum responses were determined.
# guinea pigs = assay: Oral administration to guinea pigs, adverse effects; type: in vivo; conditions: administered orally to guinea pigs at a dose of 5mg/kg
# Source text: In general, the compounds according to the invention are non-toxic at therapeutically useful doses.
# T1 sequence (Q8K4Z4 whole entry): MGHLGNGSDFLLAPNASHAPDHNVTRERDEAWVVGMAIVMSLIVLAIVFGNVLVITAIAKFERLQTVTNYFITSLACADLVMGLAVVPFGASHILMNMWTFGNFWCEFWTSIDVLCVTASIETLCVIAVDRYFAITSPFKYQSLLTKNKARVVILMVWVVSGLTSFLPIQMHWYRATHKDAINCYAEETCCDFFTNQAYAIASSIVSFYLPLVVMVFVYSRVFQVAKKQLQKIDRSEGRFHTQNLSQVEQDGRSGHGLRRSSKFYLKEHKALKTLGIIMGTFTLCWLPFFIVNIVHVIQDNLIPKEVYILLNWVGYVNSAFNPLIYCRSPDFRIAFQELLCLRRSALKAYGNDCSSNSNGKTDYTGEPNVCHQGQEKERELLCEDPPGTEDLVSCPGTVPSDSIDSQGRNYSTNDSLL
Structure (SMILES),Potency (Isoprenaline = 1) (β2-adrenoreceptors),adverse effects (guinea pigs)
"CC(CCCCCOCCc1ccccc1)NCC(O)c1ccc(O)c(CCO)c1 (stereo not shown) [Example 5, 2-Hydroxy-5-[1-hydroxy-2-[[1-metlayl-6-(2-phenylethoxy)hexyl]amino]ethyl]benzeneethanol hydrochloride (4:3)]",0.17,
"CC(CCCCCOCCc1ccccc1)NCC(O)c1ccc(O)c2[nH]c(=O)ccc12 (stereo not shown) [Example 6, 8-Hydroxy-5-[1-hydroxy-2-[[1-methyl-6-(2-phenylethoxy)hexyl]amino]ethyl]-2(1H)-quinolinone]",0.16,no adverse effects
"Oc1ccc(C(O)CNCCCCCCOCCCCc2ccccc2)cc1O (stereo not shown) [Example 7, 4-[1-Hydroxy-2-[[6-(4-phenylbutoxy)hexyl]amino]ethyl]-1,2-benzenediol]",,no adverse effects
"CC(CCCCCOCCc1ccccc1)NC[C@H](O)c1ccc(O)c(O)c1 (stereo partly drawn) [Example 8, (1R)-4-[1-Hydroxy-2-[1-methyl-6-(2-phenylethoxy)hexyl]amino]ethyl-1,2-benzenediol.]",0.4,no adverse effects
"Oc1cc(O)cc(C(O)CNCCCCCCOCCCCc2ccccc2)c1 (stereo not shown) [Example 10, 5-[1-Hydroxy-2-[[6-(4-phenylbutoxy)hexyl]amino]ethyl]-1,3-benzenediol]",,no adverse effects
"CC(CCCCCOCCc1ccccc1)NCC(O)c1cc(O)cc(O)c1 (stereo not shown) [Example 12, 5-[1-Hydroxy-2-[[1-methyl-6-(2-phenylethoxy)hexyl]amino]ethyl]-1,3-benzenediol benzoate (salt)]",0.15,
"CC(CCCCCOCCc1ccc(F)cc1)NCC(O)c1cc(O)cc(O)c1 (stereo not shown) [Example 14, 5-[2-[[6-[2-(4-Fluorophenyl)ethoxy]-1-methylhexyl]amino]-1-hydroxyethyl]-1,3-benzenediol, benzoate (salt)]",0.13,
"COc1ccc(CCOCCCCCCNCC(O)c2ccc(O)c(O)c2)cc1 (stereo not drawn) [Example 17, 4-[l-Hydroxy-2-[[6-[2-(4-methoxyphenyl)ethoxy]hexyl]amino]ethyl]-1,2-benzenediol]",0.6,
